According to US20140275094A1, “METHOD FOR TREATING PULMONARY ARTERIAL HYPERTENSION IN A PATIENT NOT HAVING IDIOPATHIC PULMONARY FIBROSIS” (GILEAD SCIENCES, INC., priority 2012, published 2014):

Experiment: Ambrisentan in subjects who discontinued bosentan/sitaxsentan due to aminotransferase elevations (AMB-222, AMB-323)
Assay type: in vivo, human
Details: prior ERA discontinued for aminotransferase >3×ULN
Description: They were enrolled in studies AMB-222 (n=36) and AMB-323 (n=27). […] The remaining subjects in these studies (a total of 4 subjects) did have an aminotransferase level>3×ULN and are included in Table 1.

COC(c1ccccc1)(c1ccccc1)[C@H](Oc1nc(C)cc(C)n1)C(=O)O [Ambrisentan, (25)-2-[(4,6-dimethylpyrimidin-2-yl)oxy]-3-methoxy-3,3-diphenylpropanoic acid]
subjects who did not experience aminotransferase elevations while receiving ambrisentan (AMB-222 (n=36)): 97% | subjects who did not experience aminotransferase elevations while receiving ambrisentan (AMB-323 (n=27)): 89%
